These results are taken from PubChem BioAssay (NCI).

The structures appear in SMILES notation.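 Following 48 hours of exposure in 96-well plates, responses at five concentrations were used to interpolate endpoints linearly. Definition used: TGI = concentration required for complete inhibition of growth.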 A value given as a limit tells only on which side of the number the result lay.

The test system of one experiment is SNB-75 CNS. Kind of experiment: NCI-60 cell line screen, 48 h.
For the compound `COc1cc([N+](=O)[O-])c(OC)c2c(Nc3ccc(S(=O)(=O)O)c4cc(S(=O)(=O)O)cc(S(=O)(=O)O)c34)cc(C)nc12`, the TGI was over 100 µM.

In turn, `O=c1c2ccccc2sc2ccccc12` displayed a TGI of over 100 µM.

Regarding `Cc1cc(C)c(/C=C(\C(=C/c2c(C)cc(C)cc2C)[N+](=O)[O-])[N+](=O)[O-])c(C)c1`, the TGI was over 100 µM.

Compound `O=C1/C(=C/c2cccc([N+](=O)[O-])c2)Sc2scc(-c3ccc([N+](=O)[O-])cc3)[n+]21` had a TGI of 32.1 µM.

The next experiment deals with CCRF-CEM leukemia. Kind of experiment: NCI-60 cell line screen, 48 h.
Turning to `COc1cc([N+](=O)[O-])c(OC)c2c(Nc3ccc(S(=O)(=O)O)c4cc(S(=O)(=O)O)cc(S(=O)(=O)O)c34)cc(C)nc12`, the TGI was over 100 µM.

The compound `O=c1c2ccccc2sc2ccccc12` came in with a TGI of over 100 µM.

For the compound `Cc1cc(C)c(/C=C(\C(=C/c2c(C)cc(C)cc2C)[N+](=O)[O-])[N+](=O)[O-])c(C)c1`, the TGI was over 100 µM.

The subject of a further experiment is LOX IMVI melanoma. The experiment is described as follows: NCI-60 cell line screen, 48 h.
`COc1cc([N+](=O)[O-])c(OC)c2c(Nc3ccc(S(=O)(=O)O)c4cc(S(=O)(=O)O)cc(S(=O)(=O)O)c34)cc(C)nc12` showed a TGI of over 100 µM.

As to `O=c1c2ccccc2sc2ccccc12`, the TGI was over 100 µM.

`Cc1cc(C)c(/C=C(\C(=C/c2c(C)cc(C)cc2C)[N+](=O)[O-])[N+](=O)[O-])c(C)c1` had a TGI of over 100 µM.

Compound `O=C1/C(=C/c2cccc([N+](=O)[O-])c2)Sc2scc(-c3ccc([N+](=O)[O-])cc3)[n+]21` returned a TGI of 46.3 µM.

For the next experiment, the system named is NCI-H460 lung. The experiment is described as follows: NCI-60 cell line screen, 48 h.
In turn, `O=c1c2ccccc2sc2ccccc12` had a TGI of over 100 µM.

In turn, `Cc1cc(C)c(/C=C(\C(=C/c2c(C)cc(C)cc2C)[N+](=O)[O-])[N+](=O)[O-])c(C)c1` came in with a TGI of over 100 µM.

`O=C1/C(=C/c2cccc([N+](=O)[O-])c2)Sc2scc(-c3ccc([N+](=O)[O-])cc3)[n+]21` had a TGI of 24.6 µM.

Another experiment relates to OVCAR-8 ovarian. The experiment is described as follows: NCI-60 cell line screen, 48 h.
For the compound `COc1cc([N+](=O)[O-])c(OC)c2c(Nc3ccc(S(=O)(=O)O)c4cc(S(=O)(=O)O)cc(S(=O)(=O)O)c34)cc(C)nc12`, the TGI is over 100 µM.

Compound `O=c1c2ccccc2sc2ccccc12` came in with a TGI of over 100 µM.

`O=C1/C(=C/c2cccc([N+](=O)[O-])c2)Sc2scc(-c3ccc([N+](=O)[O-])cc3)[n+]21` displayed a TGI of over 100 µM.

In a further experiment the test system is HCT-15 colon. Kind of experiment: NCI-60 cell line screen, 48 h.
Take `O=c1c2ccccc2sc2ccccc12`: the TGI is over 100 µM.

Take `O=C1/C(=C/c2cccc([N+](=O)[O-])c2)Sc2scc(-c3ccc([N+](=O)[O-])cc3)[n+]21`: the TGI was 33.6 µM.

A further experiment concerns MALME-3M melanoma. The experiment is described as follows: NCI-60 cell line screen, 48 h.
Compound `COc1cc([N+](=O)[O-])c(OC)c2c(Nc3ccc(S(=O)(=O)O)c4cc(S(=O)(=O)O)cc(S(=O)(=O)O)c34)cc(C)nc12` had a TGI of over 100 µM.

`O=c1c2ccccc2sc2ccccc12`: the TGI was over 100 µM.

Another experiment has as its system A498 renal. Kind of experiment: NCI-60 cell line screen, 48 h.
For `COc1cc([N+](=O)[O-])c(OC)c2c(Nc3ccc(S(=O)(=O)O)c4cc(S(=O)(=O)O)cc(S(=O)(=O)O)c34)cc(C)nc12`, the TGI was over 100 µM.

`O=c1c2ccccc2sc2ccccc12` showed a TGI of over 100 µM.

For the next experiment, the system named is MDA-N. Kind of experiment: NCI-60 cell line screen, 48 h.
`COc1cc([N+](=O)[O-])c(OC)c2c(Nc3ccc(S(=O)(=O)O)c4cc(S(=O)(=O)O)cc(S(=O)(=O)O)c34)cc(C)nc12`: the TGI is over 100 µM.

Compound `O=c1c2ccccc2sc2ccccc12` showed a TGI of over 100 µM.

As for `Cc1cc(C)c(/C=C(\C(=C/c2c(C)cc(C)cc2C)[N+](=O)[O-])[N+](=O)[O-])c(C)c1`, the TGI was over 100 µM.

On to `O=C1/C(=C/c2cccc([N+](=O)[O-])c2)Sc2scc(-c3ccc([N+](=O)[O-])cc3)[n+]21`, for which the TGI is over 100 µM.

Another experiment deals with SF-295 CNS. Kind of experiment: NCI-60 cell line screen, 48 h.
For `O=c1c2ccccc2sc2ccccc12`, the TGI is over 100 µM.

Take `Cc1cc(C)c(/C=C(\C(=C/c2c(C)cc(C)cc2C)[N+](=O)[O-])[N+](=O)[O-])c(C)c1`: the TGI is over 100 µM.

Turning to `O=C1/C(=C/c2cccc([N+](=O)[O-])c2)Sc2scc(-c3ccc([N+](=O)[O-])cc3)[n+]21`, the TGI is 53.6 µM.

The next experiment deals with COLO 205 colon. Kind of experiment: NCI-60 cell line screen, 48 h.
The compound `COc1cc([N+](=O)[O-])c(OC)c2c(Nc3ccc(S(=O)(=O)O)c4cc(S(=O)(=O)O)cc(S(=O)(=O)O)c34)cc(C)nc12` had a TGI of over 100 µM.

As to `O=c1c2ccccc2sc2ccccc12`, the TGI is over 100 µM.

`Cc1cc(C)c(/C=C(\C(=C/c2c(C)cc(C)cc2C)[N+](=O)[O-])[N+](=O)[O-])c(C)c1` showed a TGI of over 100 µM.

With `O=C1/C(=C/c2cccc([N+](=O)[O-])c2)Sc2scc(-c3ccc([N+](=O)[O-])cc3)[n+]21`, the TGI is over 100 µM.

A further experiment relates to SK-OV-3 ovarian. The experiment is described as follows: NCI-60 cell line screen, 48 h.
`COc1cc([N+](=O)[O-])c(OC)c2c(Nc3ccc(S(=O)(=O)O)c4cc(S(=O)(=O)O)cc(S(=O)(=O)O)c34)cc(C)nc12` gave a TGI of over 100 µM.

`O=c1c2ccccc2sc2ccccc12` returned a TGI of over 100 µM.

`Cc1cc(C)c(/C=C(\C(=C/c2c(C)cc(C)cc2C)[N+](=O)[O-])[N+](=O)[O-])c(C)c1` displayed a TGI of over 100 µM.

In turn, `O=C1/C(=C/c2cccc([N+](=O)[O-])c2)Sc2scc(-c3ccc([N+](=O)[O-])cc3)[n+]21` showed a TGI of 90.5 µM.

The next experiment relates to HT29 colon. Kind of experiment: NCI-60 cell line screen, 48 h.
Turning to `COc1cc([N+](=O)[O-])c(OC)c2c(Nc3ccc(S(=O)(=O)O)c4cc(S(=O)(=O)O)cc(S(=O)(=O)O)c34)cc(C)nc12`, the TGI was over 100 µM.

In the case of `O=c1c2ccccc2sc2ccccc12`, the TGI was over 100 µM.

In turn, `Cc1cc(C)c(/C=C(\C(=C/c2c(C)cc(C)cc2C)[N+](=O)[O-])[N+](=O)[O-])c(C)c1` registered a TGI of over 100 µM.

For `O=C1/C(=C/c2cccc([N+](=O)[O-])c2)Sc2scc(-c3ccc([N+](=O)[O-])cc3)[n+]21`, the TGI worked out at 38.8 µM.

The test system of another experiment is NCI-H522 lung. The experiment is described as follows: NCI-60 cell line screen, 48 h.
On to `COc1cc([N+](=O)[O-])c(OC)c2c(Nc3ccc(S(=O)(=O)O)c4cc(S(=O)(=O)O)cc(S(=O)(=O)O)c34)cc(C)nc12`, for which the TGI is over 100 µM.

In turn, `O=c1c2ccccc2sc2ccccc12` displayed a TGI of over 100 µM.

A further experiment deals with SK-MEL-28 melanoma. Kind of experiment: NCI-60 cell line screen, 48 h.
`COc1cc([N+](=O)[O-])c(OC)c2c(Nc3ccc(S(=O)(=O)O)c4cc(S(=O)(=O)O)cc(S(=O)(=O)O)c34)cc(C)nc12`: the TGI was over 100 µM.

The compound `O=c1c2ccccc2sc2ccccc12` showed a TGI of over 100 µM.

Compound `Cc1cc(C)c(/C=C(\C(=C/c2c(C)cc(C)cc2C)[N+](=O)[O-])[N+](=O)[O-])c(C)c1` returned a TGI of over 100 µM.

In turn, `O=C1/C(=C/c2cccc([N+](=O)[O-])c2)Sc2scc(-c3ccc([N+](=O)[O-])cc3)[n+]21` showed a TGI of 62.3 µM.

In another experiment the test system is MOLT-4 leukemia. Kind of experiment: NCI-60 cell line screen, 48 h.
For `COc1cc([N+](=O)[O-])c(OC)c2c(Nc3ccc(S(=O)(=O)O)c4cc(S(=O)(=O)O)cc(S(=O)(=O)O)c34)cc(C)nc12`, the TGI was over 100 µM.

`O=c1c2ccccc2sc2ccccc12` had a TGI of over 100 µM.
